Legend:
H. pylori infection = conditions: patients; cited from earlier work
H. pylori (ATCC43504) = assay: Cultivation of H. pylori in the presence or absence of cholesterol; format: cell-based, Helicobacter pylori; conditions: Ham's F-12 with 0.005% cholesterol, 5 days
[1] = test system: Helicobacter pylori (ATCC43504); assay: Cell growth assay of H. pylori (microbroth dilution, OD 600 nm); format: cell-based; conditions: ATCC43504, Brucella broth, 96-well plate, 35° C., 15% CO2, 4 days, OD600
H. pylori = assay: Cell motility assay (time-lapse confocal images); format: cell-based, Helicobacter pylori; conditions: 31.2 mU/ml or same protein concentration, 3 days, mean±SD
[2] = test system: UDP-Glc:sterol glucosyltransferase; assay: In vitro synthesis of CGL from UDP-Glc and cholesterol by sonicated H. pylori; format: biochemical, Helicobacter pylori; conditions: 5.0 mU in 100 μl reaction (50.0 mU/ml), 30° C., 3 hours

CC1(C)S[C@@H]2[C@H](NC(=O)[C@H](N)c3ccc(O)cc3)C(=O)N2[C@H]1C(=O)O [amoxicillin]
eradication rate (H. pylori infection): less than 20%

CC[C@H]1OC(=O)[C@H](C)[C@@H](O[C@H]2C[C@@](C)(OC)[C@@H](O)[C@H](C)O2)[C@H](C)[C@@H](O[C@@H]2O[C@H](C)C[C@H](N(C)C)[C@H]2O)[C@](C)(OC)C[C@@H](C)C(=O)[C@H](C)[C@@H](O)[C@]1(C)O [clarithromycin]
eradication rate (H. pylori infection): about 40%

CC(C)CCC[C@@H](C)[C@H]1CC[C@H]2[C@@H]3CC=C4C[C@@H](O)CC[C@]4(C)[C@H]3CC[C@]12C [cholesterol]
morphology (H. pylori (ATCC43504)): normal | motility (H. pylori (ATCC43504)): good | CFU/ml (H. pylori (ATCC43504); 35° C.): 1 × 10^8 CFU/ml

Cc1ncc([N+](=O)[O-])n1CCO [metronidazole]
eradication rate (H. pylori infection): less than 10%

B1: CD43 free of a GlcNAcα residue: control soluble CD43 produced without α4GnT cDNA; side chain Galβ1→4GlcNAcβ1→6(Galβ1→3)GalNAcα→Ser/Thr (protein, UniProt P16150 20-253, looked up)
extracellular domain: STTAVQTPTSGEPLVSTSEPLSSKMYTTSITSDPKADSTGDQTSALPPSTSINEGSPLWTSIGASTGSPLPEPTTYQEVSIKMSSVPQETPHATSHPAVPITANSLGSHTVTGGTITTNSPETSSRTSGAPVTTAASSLETSRGTSGPPLTMATVSLETSKGTSGPPVTMATDSLETSTGTTGPPVTMTTGSLEPSSGASGPQVSSVKLSTMMSPTTSTNASTVPFRNPDENSR
modifications: extracellular domain core2 O-glycans lacking terminal GlcNAc
notes: control soluble CD43 produced without α4GnT cDNA; side chain Galβ1→4GlcNAcβ1→6(Galβ1→3)GalNAcα→Ser/Thr
growth of H. pylori [1]: drastic growth | mean velocity of seven H. pylori (H. pylori): 21.1±2.6 μm/sec | mean velocity of seven H. pylori (H. pylori; listed as αGlcNAc (−)): 21.2±2.6 μm/sec | peak of CGL at m/z 571.6 in products of sonicated H. pylori [2]: a peak of CGL was detected
